Results published in patent publication US11136348B2, “Furostan-3-ol derivatives as skeletal muscle hypertrophic agents” (EMMYON, INC., priority 2015, dated 2021).

Columns and labels:
C2C12 skeletal myotubes = assay: Total cellular protein content in C2C12 skeletal myotubes (BCA); format: cell-based, Mouse; conditions: 48 h incubation, vs vehicle (0.1% DMSO); for Percent change in total protein at 0.03 µM / Percent change in total protein at 0.1 µM / Percent change in total protein at 0.3 µM / Percent change in total protein at 1 µM / Percent change in total protein at 3 µM: Mus musculus, C2C12
Procedure: The compounds were tested in a well-established in vitro model of skeletal muscle, namely fully differentiated, post-mitotic C2C12 skeletal myotubes. Mouse C2C12 myoblasts may be obtained from ATCC (CRL-1772) and maintained at 37° C. and 5% CO2 in Dulbecco's modified Eagle's medium (ATCC #30-2002) containing antibiotics (100 units/mL penicillin, […] streptomycin sulfate) and 10% (v/v) fetal bovine serum (FBS). Myoblasts were set up for experiments on day 0 in 6-well plates at a density of 2.5×10^5 cells/well. On day 2, myoblasts were induced to differentiate into myotubes by replacing 10% FBS with 2% horse serum (HS). On day 7, myotubes were rinsed once with PBS, and then 2% HS was replaced with 10% FBS. The vehicle (0.1% DMSO) or varying concentrations of test compound were added directly to the media. After 48 h incubation, myotube protein content and size were measured.
To determine myotube protein content, myotubes were washed with ice cold PBS, scraped into lysis buffer (10 mM Tris-HCl, pH 7.6, 100 mM NaCl, and 1% (w/v) SDS, complete Mini protease inhibitor cocktail (Roche), and a 1:100 dilution of phosphatase inhibitor cocktail 3 (Sigma)), and then lysed with 10 passes through a 22-gauge needle. An aliquot of each myotube lysate sample was then used to determine protein concentration by the BCA kit (Pierce). […] To determine myotube size, myotubes were subjected to immunofluorescence staining with anti-troponin primary antibody and a fluorescent secondary antibody. Myotubes were then imaged on an Olympus IX-71 microscope equipped with a DP-70 camera and epifluorescence filters. Image analysis was performed using ImageJ software.

[1] = tested on: Male C57BL/6 mice, tibialis anterior (TA) muscle; assay: Mouse model of muscular atrophy: unilateral tibialis anterior immobilization; format: in vivo; conditions: 10 mg/kg i.p. twice a day for 7 days; 6 days TA immobilization; immobilized TA weight normalized to contralateral mobile TA; 12-13 mice
Procedure: Compounds of the invention were also tested in vivo in an established mouse model for muscular atrophy. Male C57BL/6 mice (8-10 weeks old) were administered i.p. injections of vehicle (corn oil) or 10 mg/kg test compound twice a day for 7 days. After 1 day of i.p. injections, one tibialis anterior (TA) muscle in each mouse was immobilized with a metal clip to induce skeletal muscle atrophy, as described previously (Dyle et al., Journal of Biological Chemistry 289: 14913-14924, 2014). In each mouse, the contralateral TA muscle remained mobile and served as a non-atrophied intrasubject control. After 7 days of i.p injections (6 days of unilateral TA immobilization), bilateral TA muscles were harvested and weighed. In each mouse, the amount of skeletal muscle loss in the immobilized TA muscle was determined by normalizing the weight of the immobilized TA muscle to the weight of the contralateral mobile (control) TA muscle. The data below are means ±SEM from 12-13 mice per condition. table: […]

| Compound | Percent change in total protein at 0.03 µM (C2C12 skeletal myotubes; 0.03 μM) | Percent change in total protein at 0.1 µM (C2C12 skeletal myotubes; 0.1 μM) | Percent change in total protein at 0.3 µM (C2C12 skeletal myotubes; 0.3 μM) | Percent change in total protein at 1 µM (C2C12 skeletal myotubes; 1 μM) | Percent change in total protein at 3 µM (C2C12 skeletal myotubes; 3 μM) | % Muscle Loss (Mean ± SEM) [1] | Percent Change in Total Protein (C2C12 skeletal myotubes; 0.03 μM) | Percent Change in Total Protein (C2C12 skeletal myotubes; 0.1 μM) | Percent Change in Total Protein (C2C12 skeletal myotubes; 0.3 μM) | Percent Change in Total Protein (C2C12 skeletal myotubes; 1 μM) | Percent Change in Total Protein (C2C12 skeletal myotubes; 3 μM) |
| --- | --- | --- | --- | --- | --- | --- | --- | --- | --- | --- | --- |
| CC(=O)NC[C@@H](C)CCC1=C(C)[C@H]2[C@H](C[C@H]3[C@@H]4CC[C@H]5C[C@@H](OC(C)=O)CC[C@]5(C)[C@H]4CC[C@@]32C)O1 [Example 1, (2aS,4S,6aS,6bS,8aS,8bS,11aS,12aS,12bR)-10-((S)-4-acetamido-3-methylbutyl)-6a,8a,9-trimethyl-2,2a,3,4,5,6,6a,6b,7,8,8a,8b,11a,12,12a,12b-hexadecahydro-1H-naphtho[2′,1′:4,5]indeno[2,1-b]furan-4-yl acetate] | 1 ± 1.1% | 5.6 ± 3.3% | 10.7 ± 1.9% | 16.7 ± 1.3% | 18.1 ± 0.5% | 4.8 ± 1.4% | – | – | – | – | – |
| CC1=C(CC[C@H](C)CNC(=O)OC(C)(C)C)O[C@H]2C[C@H]3[C@@H]4CC[C@H]5C[C@@H](O)CC[C@]5(C)[C@H]4CC[C@]3(C)[C@@H]12 [Example 2, tert-Butyl ((S)-4-((2aS,4S, 6aS,6bS, 8aS, 8bS,11aS,12aS,12bR)-4-hydroxy-6a, 8a,9-trimethyl-2,2a,3 ,4,5,6,6a,6b,7,8,8a, 8b,11a,12,12a,12b-hexadecahydro-1H-naphtho[2′,1′:4,5]indeno[2,1-b]furan-10-yl)-2-methylbutyl)carbamate] | 3.2 ± 2.1% | 3.2 ± 3% | 4.9 ± 3.9% | 8.3 ± 3.8% | 10.8 ± 3% | 8.6 ± 1.8% | – | – | – | – | – |
| CC1=C(CC[C@H](C)CN)O[C@H]2C[C@H]3[C@@H]4CC[C@H]5C[C@@H](O)CC[C@]5(C)[C@H]4CC[C@]3(C)[C@@H]12.Cl [Example 3, (2aS,4S,6aS,6bS,8aS,8bS,11aS,12aS,12bR)-10-((S)-4-Amino-3-methylbutyl)-6a,8a,9-trimethyl-2,2a,3,4,5,6,6a,6b,7,8,8a,8b,11a,12,12a,12b-hexadecahydro-1H-naphtho[2′,1′:4,5]indeno[2,1-b]furan-4-ol hydrochloride] | – | – | – | – | – | 8.3 ± 1.9% | 3.8 ± 1.8% | 6.7 ± 2.4 % | 9.2 ± 2.4 % | 16.4 ± 1.3 % | 17.9 ± 0.7 % |
| CC(=O)O[C@H]1CC[C@@]2(C)[C@@H](CC[C@@H]3[C@@H]2CC[C@@]2(C)[C@H]3C[C@@H]3OC(CC[C@H](C)CNC(=O)OC(C)(C)C)=C(C)[C@@H]32)C1 [Example 4, (2aS,4S,6aS,6bS,8aS,8bS,11aS,12aS,12bR)-10-((S)-4-((tert-butoxycarbonyl)amino)-3-methylbutyl)-6a,8a,9-trimethyl-2,2a,3,4,5,6,6a,6b,7,8,8a,8b,11a,12,12a,12b-hexadecahydro-1H-naphtho[2′,1′:4,5]indeno[2,1-b]furan-4-yl acetate acetate] | 4.3 ± 1.6% | 4 ± 2.1% | 11.2 ± 2.3% | 13.4 ± 1.5% | 11.4 ± 2.9% | – | – | – | – | – | – |
| CC1=C(CC[C@H](C)CNC(=O)OCC(C)C)O[C@H]2C[C@H]3[C@@H]4CC[C@H]5C[C@@H](O)CC[C@]5(C)[C@H]4CC[C@]3(C)[C@@H]12 [Example 6, Isobutyl ((S)-4-((2aS,4S,6aS,6bS, 8aS, 8bS,11aS,12aS,12bR)-4-hydroxy-6a, 8a,9-trimethyl-2,2a,3,4,5,6,6a,6b,7,8,8a, 8b,11a,12,12a,12b-hexadecahydro-1H-naphtho[2′,1′:4,5]indeno[2,1-b]furan-10-yl)-2-methylbutyl)carbamate] | 1.1 ± 0.8% | -0.1 ± 3.1% | 4.2 ± 3.2% | 10.9 ± 3.1% | 9 ± 1.6% | – | – | – | – | – | – |
| CC1=C(CC[C@H](C)CNC(C)C)O[C@H]2C[C@H]3[C@@H]4CC[C@H]5C[C@@H](O)CC[C@]5(C)[C@H]4CC[C@]3(C)[C@@H]12 [Example 7, (2aS,4S,6aS,6bS,8aS,8bS,11aS,12aS,12bR)-10-((S)-4-(Isopropylamino)-3-methylbutyl)-6a,8a,9-trimethyl-2,2a,3,4,5,6,6a,6b,7,8,8a,8b,11a,12,12a,12b-hexadecahydro-1H-naphtho[2′,1′:4,5]indeno[2,1-b]furan-4-ol] | -0.9 ± 1.5% | 0.5 ± 1.9% | 11.6 ± 2.3% | 11 ± 1.9% | 12.2 ± 3.2% | – | – | – | – | – | – |
| CC1=C(CC[C@H](C)CN(C)C)O[C@H]2C[C@H]3[C@@H]4CC[C@H]5C[C@@H](O)CC[C@]5(C)[C@H]4CC[C@]3(C)[C@@H]12 [Example 8, (2aS,4S,6aS,6bS,8aS,8bS,11aS,12aS,12bR)-10-((S)-4-(Dimethylamino)-3-methylbutyl)-6a,8a,9-trimethyl-2,2a,3,4,5,6,6a,6b,7,8,8a,8b,11a,12,12a,12b-hexadecahydro-1H-naphtho[2′,1′:4,5]indeno[2,1-b]furan-4-ol] | 0.5 ± 2.1% | 5 ± 1.9% | 9.7 ± 0.7% | 10.7 ± 1.6% | 9.1 ± 1.2% | – | – | – | – | – | – |
| CC1=C(CC[C@H](C)CNC(C)C(F)F)O[C@H]2C[C@H]3[C@@H]4CC[C@H]5C[C@@H](O)CC[C@]5(C)[C@H]4CC[C@]3(C)[C@@H]12 (stereo partly drawn) [Example 9, (2aS,4S,6aS,6bS,8aS,8bS,11aS,12aS,12bR)-10-((3S)-4-((1,1-Difluoropropan-2-yl)amino)-3-methylbutyl)-6a,8a,9-trimethyl-2,2a,3,4,5,6,6a,6b,7,8,8a,8b,11a,12,12a,12b-hexadecahydro-1H-naphtho[2′,1′:4,5]indeno[2,1-b]furan-4-ol] | -1.5 ± 2.3% | 1.2 ± 0.7% | 8.6 ± 2.5% | 6.2 ± 2.1% | 6.9 ± 2.6% | – | – | – | – | – | – |
| CC1=C(CC[C@H](C)CNC(=O)OC(C)(C)C)O[C@H]2C[C@H]3[C@@H]4CC[C@H]5CC(NCCO)CC[C@]5(C)[C@H]4CC[C@]3(C)[C@@H]12 (stereo partly drawn) [Example 10, tert-Butyl ((2S)-4-((2aS,6aS,6bS,8aS,8bS,11aS,12aS,12bR)-4-((2-hydroxyethyl)amino)-6a,8a,9-trimethyl-2,2a,3,4,5,6,6a,6b,7,8,8a,8b,11a,12,12a,12b-hexadecahydro-1H-naphtho[2′,1′:4,5]indeno[2,1-b]furan-10-yl)-2-methylbutyl)carbamate] | 10.3 ± 2.7% | 10.6 ± 2.2% | 15 ± 2.2% | 12.9 ± 1.6% | 16.1 ± 1.6% | – | – | – | – | – | – |
| CC1=C(CC[C@H](C)CN)O[C@H]2C[C@H]3[C@@H]4CC[C@H]5CC(NCCO)CC[C@]5(C)[C@H]4CC[C@]3(C)[C@@H]12.Cl.Cl (stereo partly drawn) [Example 11, 2-(((2aS,6aS,6bS,8aS,8bS,11aS,12aS,12bR)-10-((S)-4-amino-3-methylbutyl)-6a,8a,9-trimethyl-2,2a,3,4,5,6,6a,6b,7,8,8a,8b,11a,12,12a,12b-hexadecahydro-1H-naphtho[2′,1′:4,5]indeno[2,1-b]furan-4-yl)amino)ethanol dihydrochloride] | – | – | – | – | – | – | −1.8 ± 2.0% | 7.7 ± 1.5 % | 6.3 ± 1.9 % | 8.8 ± 2.1 % | 4.9 ± 1.1 % |
